Measured values taken from ChEMBL document CHEMBL3758102, “Serrulatane Diterpenoid from Eremophila neglecta Exhibits Bacterial Biofilm Dispersion and Inhibits Release of Pro-inflammatory Cytokines from Activated Macrophages” (J Nat Prod, 2015).
≈ marks a conversion by molar mass, not a printed value. Calls of active or inactive are those of the source. The calls are words filed in the database; no cut-off is given here.

What was measured:
[1] = test system: Staphylococcus epidermidis; test: Antibiofilm activity against Staphylococcus epidermidis ATCC 35984 assessed as 3 hrs pre-established biofilm viable cell count after 20 hrs (reference value: 1 x 10^10 CFU/ml); assay type: functional
BMDM [2] = test: Inhibition of IL-6 production in C57Bl/6 mouse BMDM cells at 5 uM pretreated prior to LPS-stimulation measured on day 7 by ELISA; assay type: functional, cell-based; details: C57BI/6
Staphylococcus aureus [3] = test: Antibacterial activity against Staphylococcus aureus ATCC 35556 incubated overnight by broth microdilution method; assay type: functional
[4] = test system: Staphylococcus epidermidis; test: Antibiofilm activity against Staphylococcus epidermidis ATCC 35984 assessed as inhibition of 3 to 6 hrs pre-established biofilm formation at 0.064 umol/well after 20 hrs by safranin staining-based method; assay type: functional, organism-based
[5] = Induction of apoptosis in C57Bl/6 mouse BMDM cells assessed as late apoptotic cells at 2.5 uM by annexin V-FITC/DAPI staining-based flow cytometric analysis (reference value: 28.4%); assay type: functional, C57BI/6
[6] = test system: Staphylococcus epidermidis; test: (§1) Antibiofilm activity against Staphylococcus epidermidis ATCC 35984 assessed as 12 hrs pre-established supernatant viable cell count at 0.01 umol/mesh after 20 hrs by […] using compound impregnated in polypropylene mesh (Rvb =7.7 x 10^8 CFU/ml); assay type: functional
BMDM [7] = test: Inhibition of IL10 production in C57Bl/6 mouse BMDM cells by ELISA; assay type: functional, cell-based; details: C57BI/6
[8] = Induction of apoptosis in C57Bl/6 mouse BMDM cells assessed as viable cells at 80 uM by annexin V-FITC/DAPI staining-based flow cytometric analysis (reference value: 46.7%); assay type: functional; details: C57BI/6, BMDM, read-out: Activity
[9] = Induction of apoptosis in C57Bl/6 mouse BMDM cells assessed as dead cells at 160 uM by annexin V-FITC/DAPI staining-based flow cytometric analysis (reference value: 24.4%); assay type: functional, C57BI/6
[10] = Cytotoxicity against C57Bl/6 mouse BMDM cells assessed as cell viability at <=80 uM after 72 hrs by MTS assay; assay type: cell-based, C57BI/6
[11] = Induction of apoptosis in C57Bl/6 mouse BMDM cells assessed as early apoptotic cells at 160 uM by annexin V-FITC/DAPI staining-based flow cytometric analysis (reference value: 0.49%); assay type: functional, C57BI/6
[12] = test system: Staphylococcus epidermidis; test: (§2) Antibiofilm activity against Staphylococcus epidermidis ATCC 35984 assessed as 12 hrs pre-established supernatant viable cell count at 0.16 umol/mesh after 20 hrs by […] using compound impregnated in polypropylene mesh (Rvb =7.7 x 10^8 CFU/ml); assay type: functional
[13] = test system: Staphylococcus epidermidis; test: as §2, with “biofilm” for “supernatant”, “(reference value: 8.6” for “(Rvb =7.7”, “10^9” for “10^8”; assay type: functional
[14] = test system: Staphylococcus epidermidis; test: Antibiofilm activity against Staphylococcus epidermidis ATCC 35984 assessed as inhibition of 12 hrs pre-established biofilm formation at 0.064 umol/well after 20 hrs by safranin staining-based method; assay type: functional, organism-based
BMDM [15] = test: Increase in IL-1beta production in C57Bl/6 mouse BMDM cells at 2.5 to 80 uM pretreated for 1 hr prior to ATP-stimulation by ELISA; assay type: functional, cell-based; details: C57BI/6
[16] = test system: Staphylococcus epidermidis; test: Antibacterial activity against Staphylococcus epidermidis ATCC 35984 incubated overnight by broth microdilution method; assay type: functional
[17] = Induction of apoptosis in C57Bl/6 mouse BMDM cells assessed as viable cells at 20 uM by annexin V-FITC/DAPI staining-based flow cytometric analysis (reference value: 46.7%); assay type: functional; details: C57BI/6, BMDM, read-out: Activity
Staphylococcus aureus [18] = test: Antibiofilm activity against Staphylococcus aureus ATCC 35556 assessed as inhibition of 24 hrs pre-established biofilm formation at 0.064 umol/well after 20 hrs by safranin staining-based method; assay type: functional, organism-based
BMDM [19] = test: Inhibition of TNFalpha production in C57Bl/6 mouse BMDM cells at 40 to 80 uM pretreated prior to LPS-stimulation measured on day 7 by ELISA; assay type: functional, cell-based; details: C57BI/6
[20] = Induction of apoptosis in C57Bl/6 mouse BMDM cells assessed as late apoptotic cells at 40 uM by annexin V-FITC/DAPI staining-based flow cytometric analysis (reference value: 28.4%); assay type: functional, C57BI/6
[21] = test system: Staphylococcus epidermidis; test: as §1, with “biofilm” for “supernatant”, “0.04” for “0.01”, “(reference value: 8.6” for “(Rvb =7.7”, “10^9” for “10^8”; assay type: functional
Escherichia coli = test: Antibacterial activity against Escherichia coli ATCC 25922 at 658 uM incubated overnight by broth microdilution method; assay type: functional, organism-based
[22] = test system: Staphylococcus epidermidis; test: Antibiofilm activity against Staphylococcus epidermidis ATCC 35984 assessed as 12 hrs pre-established biofilm viable cell count after 20 hrs (reference value: 1.2 x 10^10 CFU/ml); assay type: functional
[23] = test system: Staphylococcus epidermidis; test: Antibiofilm activity against Staphylococcus epidermidis ATCC 35984 assessed as 12 hrs pre-established supernatant viable cell count at 0.02 umol/mesh after 20 hrs by […] using compound impregnated in polypropylene mesh (Rvb =7.7 x 10^8 CFU/ml); assay type: functional
[24] = Induction of apoptosis in C57Bl/6 mouse BMDM cells assessed as early apoptotic cells at 20 uM by annexin V-FITC/DAPI staining-based flow cytometric analysis (reference value: 0.49%); assay type: functional, C57BI/6
[25] = test system: Staphylococcus epidermidis; test: Antibiofilm activity against Staphylococcus epidermidis ATCC 35984 assessed as 12 hrs pre-established supernatant viable cell count at 0.04 umol/mesh after 20 hrs by […] using compound impregnated in polypropylene mesh (Rvb =7.7 x 10^8 CFU/ml); assay type: functional
[26] = test system: Staphylococcus epidermidis; test: Antibiofilm activity against Staphylococcus epidermidis ATCC 35984 assessed as reduction in 24 hrs pre-established biofilm viable cell count after 20 hrs (reference value: 1.4 x 10^10 +/- 2.6 x 10^9 CFU/ml); assay type: functional
[27] = Induction of apoptosis in C57Bl/6 mouse BMDM cells assessed as early apoptotic cells at 80 uM by annexin V-FITC/DAPI staining-based flow cytometric analysis (reference value: 0.49%); assay type: functional, C57BI/6

Which Activity [1] does the source give for `CC(C)=CCC[C@H](C)[C@@H]1CC[C@@H](C)c2c(O)cc(C(=O)O)cc21` here?
Its Activity is 0 CFU/ml.

What about the inhibition (BMDM [2]) of the same molecule?
The inhibition was “Active”.

What about the MBC (Staphylococcus aureus [3]) of the same molecule?
The MBC was 41 µM (≈ 13 µg/mL).

What about the MIC (Staphylococcus aureus [3]) of the same molecule?
The MIC was 41 µM (≈ 13 µg/mL).

And the inhibition [4]?
Its inhibition is “Active”.

And the Activity [5]?
Its Activity is 32.7%.

What about the Activity [6] of the same molecule?
Its Activity is 3.4 ×10⁸ CFU/ml.

What about the inhibition (BMDM [7]) of the same molecule?
Its inhibition is “inactive”.

What about the viability at 80 µM [8] of the same molecule?
The viability at 80 µM was 31%.

What about the Activity [9] of the same molecule?
Its Activity is 0.63%.

And the Activity [10]?
Its Activity is “Non-toxic”.

What about the Activity [11] of the same molecule?
Its Activity is 42.5%.

And the Activity [12]?
Its Activity is 9 ×10³ CFU/ml.

And the Activity [13]?
The Activity was 3.9 ×10⁴ CFU/ml.

What about the inhibition [14] of the same molecule?
Its inhibition is “Active”.

And the Activity (BMDM [15])?
The Activity was “inactive”.

What about the MBC [16] of the same molecule?
The MBC was 82 µM (≈ 25.9 µg/mL).

What about the MIC [16] of the same molecule?
Its MIC is 82 µM (≈ 25.9 µg/mL).

What about the viability at 20 µM [17] of the same molecule?
Its viability at 20 µM is 62.2%.

And the inhibition (Staphylococcus aureus [18])?
Its inhibition is “Active”.

What about the inhibition (BMDM [19]) of the same molecule?
The inhibition was “Active”.

And the Activity [20]?
The Activity was 27.7%.

What about the Activity [21] of the same molecule?
Its Activity is 6.7 ×10⁸ CFU/ml.

What about the Activity (Escherichia coli) of the same molecule?
Its Activity is “inactive”.

What about the Activity [22] of the same molecule?
Its Activity is 6 ×10³ CFU/ml.

And the Activity [23]?
Its Activity is 5 ×10⁷ CFU/ml.

What about the Activity [24] of the same molecule?
Its Activity is 4.05%.

What about the Activity [25] of the same molecule?
The Activity was 1.5 ×10⁷ CFU/ml.

And the Activity [26]?
Its Activity is 2 log10CFU/ml.

What about the Activity [27] of the same molecule?
The Activity was 0.81%.
